Assay results from US20260356984A1, “DNA-AFFIBODY-DRUG NANOSTRUCTURES FOR INHIBITING TRIPLE NEGATIVE BREAST CANCER GROWTH AND METASTASIS” (ARIZONA BOARD OF REGENTS ON BEHALF OF ARIZONA STATE …, priority 2022, published 2026).
One block for each compound: values may come before it.

Tests used:
TNBC = conditions: employed as a single agent; cited from earlier work
breast cancer = breast cancer patients; cited from earlier work
MDA-MB-231 cells = test: Crosslinking assay of HER1 overexpressing TNBC cells; assay type: cell-based; conditions: 500 nM free THZ1; 24 h
Protocol: (§1) FIGS. 4A-4H. Crosslinking of BC cells induced by I. MB-231 cells without drug treatment (A, D); with 500 nM THZ1 (B, E); with 10 nM I (C, F) were incubated 24 h and 48 h, respectively. (G) Calculated crosslinking efficiency of MB-231 cells in the presence of 10 nM I in 24 h (p<0.001); (H) Calculated crosslinking efficiency of BT474 cells in the presence of 10 nM I in 24 h.
(§2) Crosslinking assay: Crosslinking of TNBC cells by I was verified using a HER1 overexpressing TNBC cell line (MDA-MB-23146). In the presence of nanostructure I (containing 50 copies of THZ1), the cells were effectively crosslinked to each other through multiple ZHER1-HER1 bindings. […] The crosslinking efficiency was up to 96% in 24 h (FIG. 4G). [Crosslinking efficiency (%)=(cell number without any treatment-non-aggregated cell number)× 100%/(cell number without any treatment). Data were reported as the mean of three independent experiments].

DNA tetrahedron = test: DNA-THZ1 binding assay (G-25 column, UV absorption 220 nm)
Protocol: FIGS. 3A-3B. DNA-THZ1 binding assay. (A) Analysis of binding ratio of THZ1 to DNA tetrahedron using UV absorption of THZ1 (220 nm). DNA tetrahedron (0.2 μM) was added different amounts of THZ1 (2-12 μM). The unbound THZ1 was removed through a Sephadex G-25 column for the detection samples. (B) Analysis of THZ1 binding to DNA tetrahedron (TH)-4ZHER1 using 1% agarose gel electrophoresis. The gel was run at 110 V for 1 h, and stained with ethidium bromide. Lanes 1-5, […] DNA tetrahedron (TH)-4ZHER1 incubated with 0-200 folds of THZ1.
DNA-THZ1 binding assay: The DNA binding property of THZ1 was evaluated following our reported method.^43 DNA tetrahedron was incubated with 10-60 fold of THZ1. After purification with G-25 column to remove unbound THZ1, the amount of THZ1 in the DNA tetrahedron was measured using UV absorption at 220 nm. […] Then we used a 1% agarose gel to analyze the binding property for high concentrations of THZ1. […] Thus, we used 50-fold of THZ1 to prepare DNA tetrahedron-4ZHER1-THZ1 nanostructure (I) for following assays.

MB231 cancer cells = test: Invasion assay (matrigel treated Transwell); assay type: cell-based; conditions: 500 nM THZ1; 24 h; p<0.001
Protocol: (§3) FIGS. 5A-5E. Migration assays for MB231 breast cancer cells. (A) without drug treatment; (B) treatment with THZ1; (C) treatment with nanostructure I; (D) Migration rate of MB231 (migrated cell numbers/control cell numbers×100%) (p<0.001); (E) Invasion rate of MB231 (invaded cell numbers/control cell numbers×100%) (p<0.001).
Invasion assay: To verify whether nanostructure I blocks cells from passing through vessel walls, an invasion assay was performed using a matrigel matrix treated Transwell™ to mimic the vessel wall. […] As a negative control, the invasion of HER1 negative BT474 BC cells were not affected by I (FIG. 6B).

MB-231 cells = test: Growth/death of MB-231 cells after 48 h incubation; assay type: cell-based; conditions: 500 nM THZ1
Protocol: as §1, §2

[1] = test system: double-strand linear DNA (20 bp, 40 bp and 60 bp); test: Linear double-strand DNA binding to THZ1 (1% agarose gel); conditions: 40-160 mM THZ1
Protocol: FIG. 9. Verification of linear DNA binding to THZ1. Double-strand linear DNAs were mixed with different amounts of THZ1 and loaded on 1% agarose gel. The gels were run at 150 V for 20 min, and stained with EtBr.
Binding of DNA to THZ1 was evaluated (FIG. 9). Double-strand linear DNAs (20 bp, 40 bp and 60 bp) were prepared by mixing two complimentary DNAs (as listed below) in 50 mM Tris-HCl, pH 7.5, containing 50 mM NaCl. The reaction mixtures were heated at 90 °C for 5 min, then cool to room temperature. To keep the same base-pair number for each same, the 20 bp DNA was adjusted to 2 mM; 40 bp DNA was adjusted to 1 mM; 60 bp DNA was adjusted to 0.67 mM. Then 40-160 mM THZ1 were added to each sample and loaded on 1% agarose gel.

[2] = test system: MB231 breast cancer cells; test: Transwell migration assay; assay type: cell-based; conditions: 500 nM THZ1; 24 h; p<0.001
Protocol: as §3
Migration assay: To verify whether nanostructure I blocks TNBC cell dissociation from aggregated cell clusters, a Transwell™ migration assay was performed. […] Since nanostructure I contains the same amount of THZ1, the enhanced inhibition of migration by nanostructure I is attributed to its ability to crosslink the cells. As a negative control, the migration of HER1 negative BT474 BC cells were not inhibited by I (FIG. 6A).

Compound: panitumumab: Anti-HER1 monoclonal antibody
benefit to TNBC patients (TNBC): neither antibody confers significant benefit to TNBC patients

Compound: Patritumab deruxtecan: HER3 antibody drug conjugate
clinical activity (breast cancer): early and clinically meaningful activity

concentration of THZ1 in DNA tetrahedron (DNA tetrahedron; 0.2 μM DNA tetrahedron, ratio THZ1/DNA tetrahedron 10 to 50, UV 220 nm after G-25 column): increased linearly
binding to double-strand DNA [1]: can bind to double-strand DNA
Compound: CN(C)C/C=C/C(=O)Nc1ccc(C(=O)Nc2cccc(Nc3ncc(Cl)c(-c4c[nH]c5ccccc45)n3)c2)cc1 [THZ1]
cell aggregation (MDA-MB-231 cells): not aggregated
passage of THZ1/DNA complex through G-25 column (DNA tetrahedron; ratio THZ1/DNA tetrahedron 60): part of THZ1/DNA complex did not pass through the G-25 column
inhibition of invasion (MB231 cancer cells): 51%
cell growth (MB-231 cells): partially growth inhibited
inhibition of migration [2]: 57%
